Source: the NIST ThermoML archive (doi:10.1016/j.jct.2018.01.024)
± gives the expanded uncertainty stated by the source.

Assay: mn = molality of the nth substance listed, in mol/kg
Conditions: Liquid

NC(N)=O [urea] + O
mass density [kg/m3]
Conditions	101 kPa	10000 kPa	25000 kPa	50000 kPa	75000 kPa	100000 kPa
278.15 K, Constant-volume piezometry, m1 = 0.1809	–	1007.91 ± 0.18	1014.96 ± 0.26	1026.22 ± 0.45	1036.88 ± 0.66	1046.98 ± 0.87
278.15 K, Constant-volume piezometry, m1 = 0.4362	–	1012.23 ± 0.18	1019.23 ± 0.26	1030.39 ± 0.46	1040.96 ± 0.66	1050.97 ± 0.87
278.15 K, Constant-volume piezometry, m1 = 0.5644	–	1014.35 ± 0.18	1021.32 ± 0.26	1032.44 ± 0.46	1042.96 ± 0.66	1052.94 ± 0.87
278.15 K, Constant-volume piezometry, m1 = 1.609	–	1030.49 ± 0.25	1037.26 ± 0.32	1048.03 ± 0.5	1058.21 ± 0.7	1067.87 ± 0.9
278.15 K, Constant-volume piezometry, m1 = 2.505	–	1042.94 ± 0.25	1049.56 ± 0.32	1060.07 ± 0.5	1069.97 ± 0.71	1079.44 ± 0.92
278.15 K, Constant-volume piezometry, m1 = 3.376	–	1053.98 ± 0.25	1060.45 ± 0.33	1070.75 ± 0.51	1080.48 ± 0.71	1089.73 ± 0.93
278.15 K, Constant-volume piezometry, m1 = 5.39	–	1076.38 ± 1.1	1082.6 ± 1.1	1092.51 ± 1.2	1101.91 ± 1.3	1110.78 ± 1.4
278.15 K, Constant-volume piezometry, m1 = 8	–	1100.31 ± 1.1	1106.3 ± 1.1	1115.83 ± 1.2	1124.88 ± 1.3	1133.5 ± 1.5
278.15 K, Constant-volume piezometry, m1 = 10.99	–	1122.33 ± 1.1	1128.15 ± 1.2	1137.36 ± 1.2	1146.09 ± 1.4	1154.43 ± 1.5
278.15 K, Constant-volume piezometry, m1 = 12.8	–	1133.68 ± 1.1	1139.4 ± 1.2	1148.51 ± 1.3	1157.08 ± 1.4	1165.23 ± 1.5
278.15 K, Vibrating tube method, m1 = 4.33	1060.83 ± 0.21	–	–	–	–	–
278.15 K, Vibrating tube method, m1 = 5.39	1072.16 ± 0.96	–	–	–	–	–
278.15 K, Vibrating tube method, m1 = 8	1096.24 ± 0.87	–	–	–	–	–
278.15 K, Vibrating tube method, m1 = 9.9	1110.86 ± 0.71	–	–	–	–	–
278.15 K, Vibrating tube method, m1 = 12.8	1129.78 ± 0.67	–	–	–	–	–
279.15 K, Vibrating tube method, m1 = 0.093	1001.56 ± 0.08	–	–	–	–	–
